# In ChEMBL document CHEMBL5724696, “Autophagy assay results for EUbOPEN Chemogenomics Library” (2024):
# Key:
# [1] = system: U2OS; assay: (§1) Here: values are normalized to the positive (DMSO; basel flux = defined as 100% suppression) and negative (250nM Torin1; mTOR inhibitor; maximal inducer of autophagy defined as 0% suppression) control compounds and represented as % of ER-phagy suppression. […] The impact of autophagy induction on cells is complex and depends on the affected target. […] Of note, treatment concentrations may be sub-optimal for specific compounds, leading to false negative annotations.; type: functional, Homo sapiens; conditions: Compound Concentration 1 uM, Culturing Media DMEM, 1 % Penicillin/Streptomycin, 10% Fetal bovin serum Add-On: blasticidin, Screening Media Control DMEM, 10% Fetal bovin serum Add-On: 1 µg/ml Doxycyclin, Screening Media Samples DMEM, 10% Fetal bovin serum Add-On: 1 µg/ml Doxycyclin 250nM Torin1
# [2] = system: U2OS; assay: as §1; type: functional, Homo sapiens; conditions: Compound Concentration 1 uM, Culturing Media DMEM, 1 % Penicillin/Streptomycin, 10% Fetal bovin serum Add-On: blasticidin, Screening Media Control DMEM, 10% Fetal bovin serum Add-On: 1 µg/ml Doxycyclin, Screening Media Samples DMEM, 10% Fetal bovin serum Add-On: 1 µg/ml Doxycyclin 250nM Torin1; remark: listed apart in the source
Structure (SMILES),ER-phagy suppression ([1]; Timepoint 12 hours) [%],ER-phagy suppression ([1]; Timepoint 24 hours) [%],ER-phagy suppression ([1]; Timepoint 36 hours) [%],ER-phagy suppression ([1]; Timepoint 60 hours) [%],ER-phagy suppression ([2]; Timepoint 12 hours) [%],ER-phagy suppression ([2]; Timepoint 24 hours) [%],ER-phagy suppression ([2]; Timepoint 36 hours) [%],ER-phagy suppression ([2]; Timepoint 54 hours) [%]
O=c1cc(N2CCOCC2)oc2c1ccc1ccccc12,-2.095,14.4083,8.467,13.3057,4.944,-13.6038,-17.5746,-11.078
O=C(O)c1ccc2c3c1cccc3c(=O)n1c3ccccc3nc21,-11.121,-24.1866,-20.6591,-29.8702,-10.0258,-24.8466,-33.5835,-29.9152
CCn1c(=O)c(-c2ccc(Cl)cc2Cl)cc2cnc(Nc3ccc(N4CCNCC4)c(F)c3)nc21,36.4408,60.1254,62.8115,76.8114,-49.4743,-41.9787,-21.5083,-6.286
CC(C)NC(=O)N1CC[C@H](NC2=Nc3cc(F)ccc3N(CC(F)F)c3ccc(Cl)cc32)C1,-0.3952,-5.126,-3.1,-4.344,-34.3378,-42.165,-48.481,-44.6081
COc1cc(Nc2ccnc3ccc(Br)cc23)cc(OC)c1OC,44.6642,57.8089,50.5911,41.5059,45.26,43.6651,45.8783,55.0501
CN(C)C(=O)Cn1cc(-c2ccc(-c3cncc4ccccc34)cc2)cn1,-8.903,10.8163,25.7126,36.3142,5.324,37.0971,57.9552,74.4134
CC(C)C(=O)Nc1n[nH]c2cc(-c3cccc(NS(=O)(=O)C4CC4)c3)ccc12,0.1153,4.089,-6.11,-14.0127,3.579,-4.784,-8.796,-3.527
COc1cc(N(C)c2ccnc3ccc(C(F)(F)F)cc23)cc(OC)c1OC,-0.7345,0.8414,-10.6797,-10.2278,8.809,-16.6853,-22.3535,-19.7391
CN1CCN(Cc2cc(NC(=O)c3ccc4c(c3)CN(c3ccccc3)CC4)cc(C(F)(F)F)c2)CC1,-14.1546,-18.3974,-8.125,-14.9547,8.416,6.996,11.6775,26.4341
Cc1cn(-c2cc(NC(=O)c3ccc4c(c3)CN(c3cncnc3)C[C@@H]4C)cc(C(F)(F)F)c2)cn1,-5.176,-7.191,-10.2809,-23.2702,-11.2753,-32.01,-29.9662,-28.2988
CN(C)C(=O)/C(C#N)=C/c1ccc(-c2nc3cnc4[nH]ccc4c3n2C2CCCCC2)o1,-17.3558,-33.4897,-33.7439,-36.9146,-7.884,-25.0962,-37.4199,-35.162
O=C(NCCCN1CCOC1=O)c1cnc(NCc2cc(Br)ccc2Br)nc1NC1CCCC1,-10.749,-21.0292,-39.1494,-40.5418,-5.816,-18.1911,-20.9165,-12.0292
CCN(Cc1ccc(Cl)cc1)c1ncc(C(=O)NCCCN2CCCC2=O)c(NC2CCCC2)n1,19.3372,13.3398,3.8795,-6.981,-0.9186,-13.7517,-21.2457,-16.9406
O=C(NCc1ccccc1)c1ccc(S(=O)(=O)NCc2ccccc2)cc1,-6.979,-12.761,-1.702,-8.939,3.538,-5.467,-1.304,10.3755
CCCCN(Cc1ccccc1)C(=O)c1ccc(S(=O)(=O)Nc2ccccc2)cc1,-1.971,-6.76,-4.753,-26.4705,-7.8361,-20.651,-23.4672,-25.4681
CN(C)C(=O)/C(C#N)=C/c1ccc(-c2nc3cnc4c(ccn4C)c3n2C2CCCCC2)o1,-5.937,-19.1708,-21.5711,-15.3462,-7.575,-15.5162,-12.7474,-14.5878
CN(C)C(=O)Cn1cc(-c2ccc(-c3nnc4ccccn34)cc2)cn1,-17.2141,-21.3564,-13.477,-20.2221,-13.7824,-23.4109,-24.5481,-15.5458
CN(C)C(=O)N1CC[C@H](NC2=Nc3cc(F)ccc3N(CC(F)F)c3ccc(Cl)cc32)C1,-14.7963,-22.2791,-19.1413,-31.4062,-18.0128,-30.8641,-36.8246,-25.6155
O=C1Nc2ccc(I)cc2/C1=C/c1cc(Br)c(O)c(Br)c1,-13.4504,-24.7924,-11.7006,-13.1814,-35.4464,-41.788,-41.037,-30.605
